Data: publication PMC12606464, “Investigating NFE2L1 activators for targeted protein aggregate clearance: a follow-up study” (RSC Medicinal Chemistry, 2025)

What was measured:
SKN-1A = experiment: rpt-3p::GFP reporter in C. elegans strain GR2183; assay type: in vivo, Caenorhabditis elegans
Text: Firstly, we investigated whether RUN-89 triggers SKN-1A activation in C. elegans by using the GR2183 strain. By using this strain, the activation of SKN-1A is indicated by GFP expression, which is driven by the promoter of the proteasome subunit gene (rpt-3p::GFP).[80,81]
Figure S9. RUN-89 activates the NFE2L1 orthologue gene SKN-1A in C. elegans.
In the GR2183 strain, activation of the SKN-1A is reported by the expression of GFP under the control of the proteasome subunit gene promoter (rpt-3p::GFP). Animals were treated with 25 µM RUN-89 or DMSO (vehicle control) for 24 hours with subsequent microscopic analysis.
Results of relative GFP fluorescence intensity per single animal are presented. Overall, 71 animals (n | DMSO = 20, RUN-89 = 21) from three independent experiments ( N) were analyzed.
The two dashed horizontal lines indicate the interquartile range, and the thick horizontal line represents the median. A significant increase in fluorescence intensity after RUN-89 treatment was verified by a Kolmogorov-Smirnov test. ***p<0.001. […]
Transgenic GR2183 worms carrying the reporter gene (rpt -3p::GFP) were exposed to RUN-89 for 24 hours and for AM140 (rmIs132 [unc-54p::Q35::YFP]) to aged 6 days under treatment to establish protein aggregation model. The worms were then anesthetized with […] sodium azide and placed on glass slides with 5% agar for fluorescence microscope observation. […]

NFE2L1 pathway = experiment: 3×PSMA4-ARE-LUC reporter with or without N-acetyl-L-cysteine (NAC); assay type: cell-based, human; settings: HEK293, 5 μM, 16 h
Text: We next examined whether the selected RUN compounds activate the NFE2L1 pathway in a stress-independent manner, while preserving normal ubiquitin-dependent proteasomal degradation. This distinction is crucial, as the therapeutic benefit of NFE2L1 activation lies in its ability to alleviate proteotoxic stress and target disease-related proteins for degradation without compromising normal proteostasis. To assess this, U2OS cells stably expressing the short-lived fluorescent reporter Ub-G76V-GFP were treated with various concentrations of RUN compounds. […] We also examined whether compound-induced activation of NFE2L1 could be attributed to the generation of reactive oxygen species (ROS). To test this, the 3×PSMA4-ARE-LUC reporter assay was performed in the presence or absence of the antioxidant N-acetyl-L-cysteine (NAC). A decrease in reporter activity upon NAC treatment would indicate pathway activation through oxidative stress. […]
To determine whether RUN compounds activate the NFE2L1 pathway via reactive oxygen species (ROS) generation or through Keap1-NRF2 pathway crosstalk, we used the 3xPSMA4-ARE-LUC dual reporter assay in HEK293 cells. […] A reduction in luminescence signal upon NAC co-treatment would indicate that the compound activates the reporter via ROS-mediated mechanism or Keap1-NRF2-dependent oxidative/electrophilic stress. […]

Row | Structure (SMILES) | Average relative fluorescence intensity per GR2183 animal (SKN-1A; 25 μM, 24 h, 20 °C, young adults, versus vehicle) | Median rpt-3p::GFP (SKN-1A reporter) (SKN-1A; GR2183, DMSO median = 100.00, Figure S9) | NFE2L1 reporter activation in the presence of NAC (NFE2L1 pathway)
1 | COc1ccc(/C=C2\CC(NC(=O)C3CCCC3)C/C(=C\c3ccc(OC)c(OC)c3)C2=O)cc1OC (stereo not drawn) [RUN-89] | significantly higher | 114.62 | –
2 | COc1ccc(/C=C2\CC(NC(=O)c3ccccn3)C/C(=C\c3ccc(OC)c(OC)c3)C2=O)cc1OC (stereo not drawn) [RUN-94] | – | – | retained its activity
